Molecular target: T1, chymopapain (Carica papaya, UniProt P14080)
T1 construct: native mature enzyme from papaya latex, commercial (Sigma C8526), dialysed; monomer; acid-unfolded states in the assay
Assay: isothermal titration calorimetry (two sets of independent sites)
Details: read-out: High affinity binding site / K1 (M^-1)
Excerpt: isothermal titration calorimetry (two sets of independent sites) on chymopapain

T1 sequence (P14080 135-352): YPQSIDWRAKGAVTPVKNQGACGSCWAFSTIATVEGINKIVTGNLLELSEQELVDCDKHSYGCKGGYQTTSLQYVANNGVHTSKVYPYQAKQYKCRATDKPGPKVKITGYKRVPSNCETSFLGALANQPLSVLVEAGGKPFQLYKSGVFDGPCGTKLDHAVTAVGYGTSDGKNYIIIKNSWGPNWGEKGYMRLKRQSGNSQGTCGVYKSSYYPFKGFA

Kd: 2940 nM
SMILES: O=S(=O)(O)c1cccc2cccc(Nc3ccccc3)c12 [1-anilino-8-naphthalene sulfonate]

— article PMC3510187, “1-Anilino-8-Naphthalene Sulfonate (ANS) Is Not a Desirable Probe for Determining the Molten Globule State of Chymopapain” (PLoS ONE, 2012)
